# Laboratory results reported in patent US10676499B2, “3′ end caps, 5′ end caps and combinations thereof for therapeutic RNA” (NOVARTIS AG, priority 2014, dated 2020).
# Biological target: eIF4E (Homo sapiens (Human), UniProt P06730)
# Test: TR-FRET assay for competitive binding of cap analogs to eIF4E
# Conditions: N7-alkylated GDP derivatives; single measurement unless noted (a = average over 2 measurements); read-out: AC50/μM
# Excerpt: His tagged eIF4E protein was purchased from Fitzgerald Industries International (80R-125; Acton, Mass.) and tRNA was purchased from SIGMA (R5636; St. Louis, Mo.). A biotinylated 20 nucleotide RNA oligo (5′Phos/rGrGrA rCrCrC rCrUrC rUrCrC rCrUrC rCrCrC rCrC biotin-3′) was purchased from Integrated DNA Technologies (Coralville, Iowa). Europium labelled anti his antibody was purchased from Perkin Elmer (ADOI 10; Waltham, Mass.) and streptavidin conjugated alexa fluor 647 was purchased from Life Technologies (S32357; Grand Island, N.Y.).
# The TR-FRET assay was performed in an assay buffer of PBS (pH 7.4), 0.02% Tween, and 0.1% BSA using four separate addition steps. Initially, 5 μl of His-eIF4E (10 nM) and tRNA (0.1 mg/ml) were added into a black walled 384 well small volume plate. Next, 1 al/well of freshly diluted compound was added using the Beckman Coulter Biomek FX liquid dispenser with a final DMSO concentration of 1%. The compound and eIF4E were allowed to bind for 15 minutes at room temperature. The third addition consisted of adding 4 μl of chemically capped 7mGDP imidazole mRNA-biotin (10 nM) into every well, with the exception of one column containing only buffer to use as a background control. The binding reaction was incubated for one hour at room temperature. Finally, 5 al of the europium-labeled anti-His antibody (10 nM) and streptavidin conjugated alexa fluor 647 (10 nM) TR-FRET detection reagents were added to each well and allowed to incubate at room temperature protected from light for 1 h. The plates were read on the Envision plate reader (Perkin-Elmer) to measure signals from both the Alexa fluor (665 nm) and the europium (615 nm). A ratio of the alexa fluor and europium fluorescence as a function of cap analog concentration was calculated for data analysis and data were fit to a standard EC50 inhibition curve in Graph Pad.
# Chain of eIF4E (P06730 whole entry): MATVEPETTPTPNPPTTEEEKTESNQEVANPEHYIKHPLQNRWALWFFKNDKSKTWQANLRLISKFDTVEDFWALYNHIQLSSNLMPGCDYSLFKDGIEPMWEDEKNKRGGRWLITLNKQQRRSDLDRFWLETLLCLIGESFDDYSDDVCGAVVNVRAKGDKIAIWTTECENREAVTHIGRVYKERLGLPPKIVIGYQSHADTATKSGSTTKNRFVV
row,AC50,Compound
1,47.1 µM,Nc1nc([O-])c2c(n1)n([C@@H]1O[C@H](COP(=O)(O)OP(=O)(O)O)[C@@H](O)[C@H]1O)c[n+]2C(c1ccccc1)c1ccccc1 [Example 16]

# Same assay, conditions: N^7-alkylated GMP derivatives; competition with capped 7mGDP mRNA-biotin; single measurement unless footnoted as average; read-out: AC50
row,Compound,AC50
1,CCc1ccc2cnn(C)c2c1 [Example 73],> 100 µM
2,CCc1cccc2c1cnn2C [Example 72],> 100 µM
3,CCc1ccc(-c2ccccc2OC)cc1 [Example 62],> 100 µM
4,CCc1ncc(-c2ccc(F)cc2)o1 [Example 64],> 100 µM
5,CCc1ccc2nonc2c1 [Example 70],23.7 µM
6,CCc1ccc(-c2cccs2)nc1 [Example 66],5.91 µM
7,CCc1ccc(-c2nc(C)no2)cc1 [Example 61],16.7 µM
8,CCc1cc2ccccc2s1 [Example 69],63.2 µM
9,CCc1ccc(-c2ccccc2)cc1 [Example 65],29 µM
10,CCc1ccc(-c2ccsc2)cc1 [Example 67],2.69 µM
11,CCc1ccc2c(cnn2C)c1 [Example 74],> 100 µM

# Further lines, results first:
row,AC50,Compound
1,> 100 µM,CCc1nc2ccccc2n1C [Example 71]
2,> 100 µM,CCc1ccc(-c2ccc(C(C)=O)cc2)cc1 [Example 60]
3,52.9 µM,CCc1nc2ccccc2s1 [Example 68]
4,> 100 µM,CCc1ccc(-c2noc(C)n2)cc1 [Example 63]
